Laboratory results from US7695930B2, “Method for the detection, identification and/or quantification of microoganisms with peptidase activity using phenoxazinone derivatives as enzyme substrates” (Biomerieux, priority 2003, dated 2010).

Experiments:
Test in all cases: Alanyl-peptidase detection on agar medium (Example 13)
Format in all cases: cell-based
Details in all cases: 25 mg/l
[1] = tested on: Serratia marcescens
Description: (§1) The detection media were prepared by mixing 3.6 g of biogelytone (bioMérieux), 2.16 g of meat extract (bioMérieux), 1.26 g of malt extract (bioMérieux), 5.76 g of NaCl (Merck) and 10.8 g of agar (bioMérieux).
(§2) 720 ml of osmosed water were added to the powder, and the mixture was then melted in a waterbath at […]. The product was separated into two flasks, each of 360 ml. Autoclaving was carried out at 121° C. for 15 min and the product was cooled to […]. in a waterbath.
(§3) L-Alanyl-7-amino-4-methylcoumarin (Ala-AMC, Bachem) was then added to the first flask as a control, at the final concentration of 50 mg/l, and L-alanyl-9-aminobenzo[a]phenoxazin-5-one (Ala-ABP, substrate of the invention obtained in Example 2, in which the amino acid is L-alanine), was then added to the second flask at the final concentration of 25 mg/l.
(§4) The size of the colonies, their coloration and also the intensity of this coloration were noted.

[2] = tested on: Staphylococcus aureus
Description: as §1, §2, §3, §4

[3] = tested on: Enterococcus faecium
Description: as §1, §2, §3, §4

[4] = tested on: Acinetobacter baumanii
Description: as §1, §2, §3, §4

[5] = tested on: Pseudomonas aeruginosa; for color of the colony: key: B corresponds to fluorescent blue; R corresponds to pink
Description: as §1, §2, §3, §4

[6] = tested on: Hafnia alvei
Description: as §1, §2, §3, §4

[7] = tested on: Saccharomyces cerevisiae
Description: as §1, §2, §3, §4

[8] = tested on: Enterobacter cloacae
Description: as §1, §2, §3, §4

## L-alanyl-9-aminobenzo[a]phenoxazin-5-one [Ala-ABP]
[1]; 24 h
  color of the colony: R
  growth diameter: 0.5 mm
  intensity of coloration, scale 0 to 4: 2
[1]; 48 h
  color of the colony: R
  growth diameter: 1 mm
  intensity of coloration, scale 0 to 4: 3
[2]; 24 h
  growth diameter: 0.1 mm
[2]; 48 h
  growth diameter: 0.3 mm
[3]; 24 h
  growth diameter: 0.2 mm
[3]; 48 h
  growth diameter: 0.3 mm
[4]; 24 h
  color of the colony: R
  growth diameter: 1.7 mm
  intensity of coloration, scale 0 to 4: 3
[4]; 48 h
  color of the colony: R
  growth diameter: 1.7 mm
  intensity of coloration, scale 0 to 4: 3
[5]; 24 h
  color of the colony: R
  growth diameter: 0.3 mm
  intensity of coloration, scale 0 to 4: 1.7
[5]; 48 h
  color of the colony: R
  growth diameter: 0.5 mm
  intensity of coloration, scale 0 to 4: 3
[6]; 24 h
  color of the colony: R
  growth diameter: 0.5 mm
  intensity of coloration, scale 0 to 4: 0.5
[6]; 48 h
  color of the colony: R
  growth diameter: 0.5 mm
  intensity of coloration, scale 0 to 4: 1.5
[7]; 24 h
  growth diameter: 0 mm
[7]; 48 h
  growth diameter: 0.2 mm
[8]; 24 h
  color of the colony: R
  growth diameter: 0.7 mm
  intensity of coloration, scale 0 to 4: 1.5
[8]; 48 h
  color of the colony: R
  growth diameter: 0.7 mm
  intensity of coloration, scale 0 to 4: 2
